These results are taken from patent US7754795B2, “Coating composition” (3M Innovative Properties Company, priority 2006, dated 2010).

The data set can be described thus: Determination of bio-accumulation: urinary clearance pharmacokinetic study in rats, with observation for toxicity and gross necropsy. As to conditions: rat, oral gavage. The data set is classed as in vivo, male Sprague Dawley rats. As for the experimental part:
The perfluorinated and partially fluorinated carboxylates were evaluated for urinary clearance using a pharmacokinetic study in rats. The goal was to measure the total amount of parent compound eliminated via urinary output and estimate the rate of elimination. The study was approved by the IACUC (Institutional Animal Care and Use Committees) and was performed in 3M Company's AAALAC (Association for Assessment and Accreditation of Laboratory Animal Care)-accredited facility.
The study utilized male Sprague Dawley rats, 6 to 8 weeks of age, and approximately 200 to 250 g body weight at study onset. The test compounds of table 2 were administered at a dose of 73 micro Moles per kg body weight in rats (N=3 animals per tested compound). All test compounds were prepared in sterile deionized water and given to rats via oral gavage. After test compounds administration, the rats were housed individually in metabolism cages for urine collection: 0 to 6 hours, 6 to 24 hours, 24 to 48 hours and […]. Animals were observed throughout the study for clinical signs of toxicity. Gross necropsy was performed at the termination of each study (96 hours post-dose) with sera and liver samples being retained from each animal.
The concentration of the parent compound or metabolites thereof were quantitatively measured via fluorine NMR on each urine sample for each animal at each time point based on internally added standards.

Where [1] appears, read: 73 micro Moles per kg, no parent compound observed in the urine.

Marks after values point to notes of the source that are not given here.

As for `N.O=C(O)C(F)(F)OC(F)(F)C(F)(F)C(F)(F)OC(F)(F)F` [Compound 1, CF3—O—(CF2)3—O—CF2—COONH4], the “T½” value (73 micro Moles per kg body weight, parent compound in urine by fluorine NMR, exponential least squares curve fitting) worked out at 10 h.

As to `N.O=C(O)COC(F)(F)C(F)OC(F)(F)C(F)(F)C(F)(F)F` (stereo not drawn) [Compound 16, C3F7—O—CFH—CF2—O—CH2—COONH4], under setting [1], the “% Recovery (96 h), based on elimination of the major metabolite C3F7—O—CHFCOO−” value is given as 65* % and the “T½ (h), based on elimination of the major metabolite C3F7—O—CHFCOO−” value is 13* h.
